In patent publication US20080261977A1, “Pyrimidine Derivatives as Cannabinoid Receptor Modulators” (priority 2004, published 2008):
Structures can show the parent of a compound that is named as a salt. Where two headings read alike, the source gives them in different places.

Target: T1, human cannabinoid CB2 receptor (Homo sapiens, UniProt P34972)
T1 construct: expressed in transfected cells; host or cells: Saccharomyces cerevisiae strain MMY23 (cassette integrated at the ura3 locus; chimeric Gpa1/Gαi3)
T1 sequence (P34972 whole entry): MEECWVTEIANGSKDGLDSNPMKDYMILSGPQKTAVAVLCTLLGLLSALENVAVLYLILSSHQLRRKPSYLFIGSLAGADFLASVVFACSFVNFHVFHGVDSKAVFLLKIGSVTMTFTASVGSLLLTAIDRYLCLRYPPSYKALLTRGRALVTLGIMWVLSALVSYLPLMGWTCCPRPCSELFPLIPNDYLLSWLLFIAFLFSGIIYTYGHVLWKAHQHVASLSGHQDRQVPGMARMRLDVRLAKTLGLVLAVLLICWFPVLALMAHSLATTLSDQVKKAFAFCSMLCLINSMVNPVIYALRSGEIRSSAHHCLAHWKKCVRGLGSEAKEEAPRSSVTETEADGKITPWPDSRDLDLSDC
Assay: Cannabinoid CB2 receptor agonist activity, yeast (Saccharomyces cerevisiae) cells expressing the receptor, FDGlu fluorescence
Type: cell-based
Settings: for Emax: read-out: efficacy (Emax relative to HU210) at the cloned human cannabinoid CB2 receptor
Experimental: The cannabinoid CB2 receptor agonist activity of the compounds of formula (I) was determined in accordance with the following experimental method.
Yeast (Saccharomyces cerevisiae) cells expressing the human cannabinoid CB2 receptor were generated by integration of an expression cassette into the ura3 chromosomal locus of yeast strain MMY23. This cassette consisted of DNA sequence encoding the human CB2 receptor flanked by the yeast GPD promoter to the 5′ end of CB2 and a yeast transcriptional terminator sequence to the 3′ end of CB2. MMY23 expresses a yeast/mammalian chimeric G-protein alpha subunit in which the C-terminal 5 amino acids of Gpa1 are replaced with the C-terminal 5 amino acids of human Gαi3 (as described in Brown et al. (2000), Yeast 16:11-22). Cells were grown at 30° C. in liquid Synthetic Complete (SC) yeast media (Guthrie and Fink (1991), Methods in Enzymology, Vol. 194) lacking uracil, tryptophan, adenine and leucine to late logarithmic phase (approximately 6 OD600/ml).
Agonists were prepared as 10 mM stocks in DMSO. EC50 values (the concentration required to produce 50% maximal response) were estimated using dilutions of between 3- and 5-fold (BiomekFX, Beckman) into DMSO. Agonist solutions in DMSO (1% final assay volume) were transferred into black, clear bottom, microtitre plates from NUNC (96- or 384-well). Cells were suspended at a density of 0.2 OD600/ml in SC media lacking histidine, uracil, tryptophan, adenine and leucine and supplemented with 10 mM 3-aminotriazole, 0.1M sodium phosphate pH 7.0, and […] fluorescein di-β-D-glucopyranoside (FDGlu). This mixture (50 ul per well for 384-well plates, 200 ul per well for 96-well plates) was added to agonist in the assay plates (Multidrop 384, Labsystems). After incubation at 30° C. for 24 hours, fluorescence resulting from degradation of FDGlu to fluorescein due to exoglucanase, an endogenous yeast enzyme produced during agonist-stimulated cell growth, was determined using a Spectrofluor microtitre plate reader (Tecan; excitation wavelength: 485 nm; emission wavelength: 535 nm). Fluorescence was plotted against compound concentration and iteratively curve fitted using a four parameter fit to generate a concentration effect value. Efficacy (Emax) was calculated from the equation
Emax=Max[compound X]−Min[compound X]/Max[HU210]−Min[HU210]×100%
where Max[compound X] and Min[compound X] are the fitted maximum and minimum respectively from the concentration effect curve for compound X, and Max[HU210] and Min[HU210] are the fitted maximum and minimum respectively from the concentration effect curve for (6aR,10aR)-3-1,1′-Dimethylheptyl)-6a,7,10,10a-tetrahydro-1-hydroxy-6,6-dimethyl-6H-dibenzo[b,d]pyran-9-methanol (HU210; available from Tocris). Equieffective molar ratio (EMR) values were calculated from the equation
Where EC50[compound X] is the EC50 of compound X and EC50[HU210] is the EC50 of HU210.

[1] = yeast agonist assay, read-out: EC50 at the cloned human cannabinoid CB2 receptor

EC50 [1] | Emax (yeast agonist assay) | Compound | EC50 | Emax
– | – | CC(C)CNCc1cnc(Nc2ccc(Cl)cc2Cl)nc1C(F)(F)F [Example 27, (2,4-Dichlorophenyl)-{5-[(isobutylamino)-methyl]-4-trifluoromethyl-pyrimidin-2yl}-amine] | < 300 nM | > 50%
< 300 nM | > 50% | CC(C)CNCc1cnc(Nc2cccc(F)c2)nc1C(F)(F)F [Example 36, (3-Fluorophenyl)-{5-[(isobutylamino)-methyl]-4-trifluoromethyl-pyrimidin-2yl}-amine, formate] | – | –
< 300 nM | > 50% | FC(F)(F)c1nc(Nc2cccc(Cl)c2)ncc1CNCC1CCOCC1 [Example 15, (3-Chlorophenyl)-(5-{[(tetrahydro-pyran-4-ylmethyl)-amino]-methyl}-4-trifluoromethyl-pyrimidin-2-yl)-amine,formate] | – | –
< 300 nM | > 50% | FC(F)(F)c1nc(Nc2cccc(Cl)c2)ncc1CNCc1cccnc1 [Example 31, (3-Chlorophenyl)-(5-{[(pyridin-3-ylmethyl)-amino]-methyl}-4-trifluoromethyl-pyrimidin-2-yl}-amine,formate] | – | –
– | – | FC(F)(F)c1nc(Nc2cccc(Cl)c2)ncc1CNC1CCCCC1 [Example 43, (3-Chlorophenyl)-(5-cyclohexylaminomethyl-4-trifluoromethyl-pyrimidin-2-yl)-amine] | 300 to 1000 nM | > 50%
– | – | CC(c1cnc(Nc2cccc(Cl)c2)nc1C(F)(F)F)N1CCOCC1 (stereo not drawn) [Example 93, (3-Chlorophenyl)-[5-(1-morpholin-4-yl-ethyl)-4-trifluoromethyl-pyrimidin-2-yl]-amine] | < 300 nM | > 50%
< 300 nM | > 50% | CC(C)(C)c1nc(Nc2cccc(Cl)c2)ncc1CN1CCOCC1 [Example 97, (4-tert-Butyl-5-morpholin-4-ylmethyl-pyrimidin-2-yl)-(3-chloro-phenyl)-amine hydrochloride] | – | –
< 300 nM | > 50% | CC(C)CNCc1cnc(Nc2cccc(Cl)c2)nc1C(F)(F)F [Example 11, (3-Chlorophenyl){5-[(isobutylamino)-methyl]-4-trifluoromethyl-pyrimidin-2yl}-amine, formate] | – | –
– | – | FC(F)(F)c1nc(Nc2cccc(Cl)c2)ncc1CNC1CCCC1 [Example 34] | < 300 nM | > 50%
< 300 nM | > 50% | CC(NCC1CCOCC1)c1cnc(Nc2cccc(Cl)c2)nc1C(F)(F)F (stereo not drawn) [Example 88, (3-Chlorophenyl)-(5-{1-[(tetrahydro-pyran-4-ylmethyl)-amino]-ethyl}-4-trifluoromethyl-pyrimidin-2-yl)-amine, formate] | – | –

Compound | EC50 [1] | Emax (yeast agonist assay) | EC50 | Emax
FC(F)(F)c1nc(Nc2cccc(Cl)c2)ncc1CN1CCCCC1 [Example 39, (3-Chlorophenyl)-(5-piperidin-1-ylmethyl-4-trifluoromethyl-pyrimidin-2-yl)-amine,formate] | 300 to 1000 nM | – | – | > 50%
N#Cc1cccc(Nc2ncc(CNC3CC3)c(C(F)(F)F)n2)c1 [Example 58, (3-Cyanophenyl)-(5-cyclopropylaminomethyl-4-trifluoromethyl-pyrimidin-2-yl)-amine,formate] | 300 to 1000 nM | – | – | > 50%
FC(F)(F)c1nc(Nc2cccc(Cl)c2)ncc1CNCC1CCCCC1 [Example 12, (3-Chlorophenyl)-{[5-(cyclohexylmethylamino)-methyl]-4-trifluoromethyl-pyrimidin-2yl}-amine] | 300 to 1000 nM | – | – | > 50%
Fc1ccc(CNCc2cnc(Nc3cccc(Cl)c3)nc2C(F)(F)F)cc1 [Example 41, (3-Chlorophenyl)-{5-[(4-fluorobenzylamino)-methyl]-4-trifluoromethyl-pyrimidin-2-yl)-amine,formate] | 300 to 1000 nM | – | – | > 50%
FC(F)(F)c1nc(Nc2cccc(Cl)c2)ncc1CNCCCc1ccccc1 [Example 46, (3-Chlorophenyl)-[5-(phenpropylamino-methyl)-4-trifluoromethyl-pyrimidin-2-yl]-amine, formate] | 300 to 1000 nM | – | – | > 50%
